From patent US11807693B2 (priority 2014, dated 2023)
Like-named read-outs stand apart in the source and are kept apart here. Starred links: 1 amine or outer side, 2 acyl side, 3 side chain; linkers in the order of their positions; H or OH if unused. Positions of bridges follow the written chain, without caps; N, C: chain ends. Non-standard residues stand in square brackets, D forms with d. Residues, ends and D or L forms follow the SMILES beside them. *: point of attachment. dBip = N[C@H](Cc1ccc(-c2ccccc2)cc1)C(=O)O; Oic = O=C(O)[C@@H]1C[C@@H]2CCCC[C@@H]2N1; Phe(4-Cl) = N[C@@H](Cc1ccc(Cl)cc1)C(=O)O; dPhe(4-Cl) = N[C@H](Cc1ccc(Cl)cc1)C(=O)O; Phe(4-I) = N[C@@H](Cc1ccc(I)cc1)C(=O)O; γGlu = O=C(O)[C@H](CCC(=O)[*:2])N[*:1]; NMeR = CN[C@@H](CCCNC(=N)N)C(=O)O; Tridecanoyl = CCCCCCCCCCCCC(=O)*; hArg = N=C(N)NCCCC[C@H](N)C(=O)O; β3hF = N[C@H](CC(=O)O)Cc1ccccc1; Cha = N[C@@H](CC1CCCCC1)C(=O)O; NMeL = CN[C@@H](CC(C)C)C(=O)O; αMeL = CC(C)C[C@](C)(N)C(=O)O; αMeP = C[C@@]1(C(=O)O)CCCN1; Nle = CCCC[C@H](N)C(=O)O; 3TP = not defined here; AEEA = NCCOCCOCC(=O)O; Aib = CC(C)(N)C(=O)O; Mpa = O=C(O)CCS

Key:
[1] = In vitro stability in rat kidney homogenate; format: in vitro ADME; settings: rat, tissue homogenate
In short: (§1)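 Apelin peptides were spiked at 5 μM final into rat plasma, liver homogenate or kidney homogenate and incubated at 37° C. for up to 4 hr. Aliquots were quenched with MeOH containing internal standard, centrifuged, and supernatants analyzed by high resolution LC-MS.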

[2] = In vitro stability in rat plasma; format: in vitro ADME
In short: as §1

[3] = In vitro stability in rat liver homogenate; format: in vitro ADME; settings: tissue homogenate
In short: as §1

[4] = In vivo pharmacokinetics in rat; design: species or system Sprague-Dawley rats; settings: for AUC(0-inf) / half-life: rat, in vivo, sc
Experimental: Evaluation of the in vivo pharmacokinetic profile of several pegylated and lipidated apelin polypeptides in rat was undertaken (FIGS. 9 and 10A-B). The apelin polypeptides were administered to Sprague-Dawley rats through subcutaneous (SC) administration and the pharmacokinetic profile for each polypeptide was subsequently evaluated. […] Blood samples collected over a 24 hr period were transferred into collection tubes containing potassium EDTA and stored on ice until processed. Plasma was obtained from blood by centrifugation. After transfer into a 96-well container, plasma samples were stored in a freezer maintained at approximately −80° C. Quantitative analysis of the apelin polypeptide in rat plasma samples was achieved using multiple reaction monitor (MRM) mode on a LC-MS/MS system.

rat APJ receptor = biological target: T1, rat APJ receptor (Rattus norvegicus, UniProt Q9JHG3); assay: [35S] GTPγS assay, rat APJ receptor; format: biochemical
T1 construct: expressed in transfected cells
T1 sequence (Q9JHG3 1-377): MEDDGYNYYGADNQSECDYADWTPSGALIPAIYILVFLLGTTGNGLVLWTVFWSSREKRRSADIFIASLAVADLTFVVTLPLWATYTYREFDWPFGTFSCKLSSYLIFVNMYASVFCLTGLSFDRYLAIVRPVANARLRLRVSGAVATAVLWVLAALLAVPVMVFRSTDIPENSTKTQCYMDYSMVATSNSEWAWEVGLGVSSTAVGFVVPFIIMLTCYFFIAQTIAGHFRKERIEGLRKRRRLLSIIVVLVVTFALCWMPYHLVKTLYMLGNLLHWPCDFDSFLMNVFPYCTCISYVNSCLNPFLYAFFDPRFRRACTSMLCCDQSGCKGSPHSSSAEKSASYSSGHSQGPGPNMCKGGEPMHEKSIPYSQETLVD
Experimental: The membranes were incubated with modified peptides in the assay buffer. […] Bound [^35S] GTPγS was separated from free radiolabel by filtration. The filter bound radioactivity was determined by liquid scintillation counting.

[5] = test system: Rat Peritoneal Mast Cells
rat plasma = settings: 37° C., up to 4 hr

Compound: CCCCCCCCCCCCC(=O)N[C@@H](CCC(=O)NCCOCCOCC(=O)NCCOCCOCC(=O)N[C@@H](CCC(N)=O)C(=O)N[C@@H](CCCNC(=N)N)C(=O)N1CCC[C@H]1C(=O)N(C)[C@@H](CCCNC(=N)N)C(=O)N[C@@H](CC1CCCCC1)C(=O)N[C@@H](CO)C(=O)N[C@@H](Cc1c[nH]cn1)C(=O)N[C@@H](CCCCN)C(=O)NCC(=O)N1[C@H](C(=O)N[C@@H](CCCC)C(=O)N2CCC[C@H]2C(=O)N[C@H](CC(=O)O)Cc2ccccc2)C[C@@H]2CCCC[C@@H]21)C(=O)O [compound 379] ({Tridecanoyl-γGlu-AEEA-AEEA}-QRP[NMeR][Cha]SHKG[Oic][Nle]P[β3hF]-OH)
- remaining at 4 h, 5 μM [1]: 1%
- remaining at 4 h, 5 μM [2]: 92%
- remaining at 4 h, 5 μM [3]: 2%
- AUC(0-inf) ([4]; 0.5 mg/kg): 0.052 µM·h
- half-life ([4]; 0.5 mg/kg): 2.27 h
- EC50 (rat APJ receptor; Table 16, read-out: EC50 Rat APJ Receptor): 8.37 nM

Compound: CC[C@H](C)[C@H](N)C(=O)N[C@@H](CCCCN)C(=O)N[C@H]1CSSC[C@@H]2NC(=O)[C@H]([C@@H](C)CC)NC(=O)[C@H](Cc3c[nH]cn3)NC(=O)[C@@H]3CCCN3C(=O)[C@H](CCCCN)NC(=O)[C@H]([C@@H](C)CC)NC(=O)[C@H](C(C)C)NC(=O)[C@H](Cc3c[nH]cn3)NC(=O)[C@H](CCCNC(=N)N)NC(=O)[C@H](CCCCN)NC(=O)[C@H](CSSC[C@@H](C(=O)NCC(=O)N[C@@H](CCCCN)C(=O)N[C@@H](CC(N)=O)C(N)=O)NC(=O)[C@H]([C@@H](C)CC)NC(=O)[C@H](CCCCN)NC(=O)[C@H](CCCNC(=N)N)NC2=O)NC(=O)[C@H](CC(N)=O)NC1=O [MCDP, reference compound] (H-IKCNCKRHVIKPHICRKICGKN-NH2; disulfide 3-15, 5-19 (inferred); N-terminus and C-terminus assumed)
- Cause Histamine Release? [5]: Yes
- EC50 [5]: 520 nM

Compound: CCCC[C@H](NC(=O)[C@@H]1C[C@@H]2CCCC[C@@H]2N1C(=O)CNC(=O)[C@H](CCCCN)NC(=O)[C@H](Cc1c[nH]cn1)NC(=O)[C@H](CO)NC(=O)[C@H](CC1CCCCC1)NC(=O)[C@H](CCCNC(=N)N)N(C)C(=O)[C@@H]1CCCN1C(=O)[C@H](CCCCNC(=N)N)NC(=O)[C@@H](CCC(N)=O)NC(C)=O)C(=O)N1CCC[C@H]1C(=O)N[C@H](Cc1ccc(Cl)cc1)C(=O)O [compound 55] (Ac-[dQ][hArg]P[NMeR][Cha]SHKG[Oic][Nle]P[dPhe(4-Cl)]-OH)
- EC50 [5]: 8170 nM

Compound: CCCCCCCCCCCCC(=O)N[C@@H](CCC(=O)NCCOCCOCC(=O)NCCOCCOCC(=O)N[C@@H](CCC(N)=O)C(=O)N[C@@H](CCCNC(=N)N)C(=O)N1CCC[C@H]1C(=O)N(C)[C@@H](CCCNC(=N)N)C(=O)N[C@@](C)(CC(C)C)C(=O)N[C@@H](CO)C(=O)N[C@@H](Cc1c[nH]cn1)C(=O)N[C@@H](CCCCN)C(=O)NCC(=O)N1[C@H](C(=O)N[C@@H](CCCC)C(=O)N2CCC[C@@]2(C)C(=O)N[C@@H](Cc2ccc(Cl)cc2)C(=O)O)C[C@@H]2CCCC[C@@H]21)C(=O)O [compound 376] ({Tridecanoyl-γGlu-AEEA-AEEA}-QRP[NMeR][αMeL]SHKG[Oic][Nle][αMeP][Phe(4-Cl)]-OH)
- remaining at 4 h, 5 μM [1]: 13%
- remaining at 4 h, 5 μM [2]: 83%
- remaining at 4 h, 5 μM [3]: 10%
- AUC(0-inf) ([4]; Sprague-Dawley, 0.5 mg/kg): 0.09 µM·h
- half-life ([4]; Sprague-Dawley, 0.5 mg/kg): 1.48 h

Compound: CC(=O)N[C@H](CCCNC(=N)N)C(=O)N[C@@H](CCC(N)=O)C(=O)N[C@@H](CCCNC(=N)N)C(=O)N1CCC[C@H]1C(=O)N[C@@H](CCCCNC(=N)N)C(=O)N(C)[C@@H](CC(C)C)C(=O)N[C@@H](CO)C(=O)N[C@@H](Cc1c[nH]cn1)C(=O)N[C@@H](CCCCN)C(=O)NCC(=O)N1[C@H](C(=O)N[C@@H](Cc2ccc(I)cc2)C(=O)N2CCC[C@H]2C(=O)N[C@H](Cc2ccc(-c3ccccc3)cc2)C(=O)O)C[C@@H]2CCCC[C@@H]21 [compound 52] (Ac-[dR]QRP[hArg][NMeL]SHKG[Oic][Phe(4-I)]P[dBip]-OH)
- EC50 [5]: 550 nM
- EC50 (rat APJ receptor; read-out: EC50 Rat APJ Receptor): 1.14 nM

Compound: {H2}[3TP](20K-mPEGReg)[hArg]rQ[hArg]Pr[NMeLeu]SHKG[Oic][pI-Phe]P[D-Bip]{COOH} ({20K‑mPEGReg-3TP}-[hArg][dR]Q[hArg]P[dR][NMeL]SHKG[Oic][Phe(4-I)]P[dBip]-OH; reading uncertain) [SEQ ID NO: 103]
- plasma concentration in rat ([4]; 20 kDa PEGylated peptides, FIG. 9, 1/10th the dose of the others): high plasma concentrations

Compound: {PDA}[AC4Abu][Aeea][Aeea][hArg]rQ[hArg]Pr[NMeLeu]SHKG[Oic][pI-Phe]P[D-Bip]{COOH}
- not cleaved (rat plasma): >90.0 % remaining at 4 hours

Compound: CCCCCCCCCCCCC(=O)N[C@@H](CCC(=O)NCCOCCOCC(=O)NCCOCCOCC(=O)N[C@@H](CCC(N)=O)C(=O)N[C@@H](CCCNC(=N)N)C(=O)N1CCC[C@H]1C(=O)N(C)[C@@H](CCCNC(=N)N)C(=O)N[C@@H](CC1CCCCC1)C(=O)N[C@@H](CO)C(=O)N[C@@H](Cc1c[nH]cn1)C(=O)N[C@@H](CCCCN)C(=O)NCC(=O)N1[C@H](C(=O)N[C@@H](CCCC)C(=O)NC(C)(C)C(=O)N[C@@H](Cc2ccc(Cl)cc2)C(=O)O)C[C@@H]2CCCC[C@@H]21)C(=O)O [compound 382] ({Tridecanoyl-γGlu-AEEA-AEEA}-QRP[NMeR][Cha]SHKG[Oic][Nle][Aib][Phe(4-Cl)]-OH)
- remaining at 4 h, 5 μM [1]: 2%
- remaining at 4 h, 5 μM [2]: 91%
- remaining at 4 h, 5 μM [3]: 6%
- AUC(0-inf) ([4]; 0.5 mg/kg): 0.0961 µM·h
- half-life ([4]; 0.5 mg/kg): 4.1 h

Compound: {TDA}[AC4Abu][Aeea][Aeea][hArg]rQ[hArg]Pr[NMeLeu]SHKG[Oic][pI-Phe]P[D-Bip]{COOH}
- not cleaved (rat plasma): >90.0 % remaining at 4 hours

Compound: {Acetyl-NH} [hArg] E Q [hArg] P r [NMeLeu] S H K G [Oic] [pI-Phe] P [D-Bip] {COOH}
- not cleaved (rat plasma): >90.0 % remaining at 4 hours

Compound: {H2}[MerPr](10KmPEGacetamide)QRP[NMeArg][Cha]SHKG[Oic][Nle][Aib][4-Cl-F]{COOH} (10KmPEGacetamide-[Mpa]QRP[NMeR][Cha]SHKG[Oic][Nle][Aib][Phe(4-Cl)]-OH) [SEQ ID NO: 120]
- induction of histamine release from rat mast cells ([5]; rat mast cells): no longer induced histamine release

Compound: {Palm} [AC4Abu] [Aeea] [Aeea] q R P [NMeArg] [Cha] S H K G [Oic] [Nle] [Aib] [D-BhPhe] {COOH}
- not cleaved (rat plasma): >90.0 % remaining at 4 hours

Compound: {Palm} [AC4Abu] [Aeea] [Aeea] q R P [NMeArg] [Cha] S H K G [Oic] [Nle] [aMePro] [D-BhPhe] {COOH}
- not cleaved (rat plasma): >90.0 % remaining at 4 hours

Compound: {hexanoyl} [AC4Abu] [Aeea] [Aeea] Q R P [NMeArg] [Cha] S H K G [Oic] [Nle] [Aib] [4-Cl-F] {COOH}
- not cleaved (rat plasma): >90.0 % remaining at 4 hours

Compound: {Acetyl-NH} Q R P [NMeArg] [Cha] S H K G [Oic] [Nle] [Aib] [4-Cl—F] {COOH} (Ac-QRP[NMeR][Cha]SHKG[Oic][Nle][Aib][Phe(4-Cl)]-OH) [SEQ ID NO: 92]
- induction of histamine release from rat mast cells [5]: positive

Compound: CCCCCCCCCCCCC(=O)N[C@@H](CCC(=O)NCCOCCOCC(=O)NCCOCCOCC(=O)N[C@@H](CCC(N)=O)C(=O)N[C@@H](CCCNC(=N)N)C(=O)N1CCC[C@H]1C(=O)N(C)[C@@H](CCCNC(=N)N)C(=O)N[C@@H](CC1CCCCC1)C(=O)N[C@@H](CO)C(=O)N[C@@H](Cc1c[nH]cn1)C(=O)N[C@@H](CCCCN)C(=O)NCC(=O)N1[C@H](C(=O)N[C@@H](CCCC)C(=O)N2CCC[C@H]2C(=O)N[C@H](CC(=O)O)Cc2ccccc2)C[C@@H]2CCCC[C@@H]21)C(=O)O [Peptide 379] ({Tridecanoyl-γGlu-AEEA-AEEA}-QRP[NMeR][Cha]SHKG[Oic][Nle]P[β3hF]-OH)
- AUC(0-inf) ([4]; 0.1 mg/kg): 0.145 µM·h
- half-life ([4]; 0.1 mg/kg): 0.261 h

Compound: {Acetyl-NH} [hArg] r Q [hArg] P E [NMeLeu] S H K G [Oic] [pI-Phe] P [D-Bip] {COOH}
- not cleaved (rat plasma): >90.0 % remaining at 4 hours

Compound: CCCC[C@H](NC(=O)[C@@H]1CCCN1C(=O)CNC(=O)[C@H](CCCCN)NC(=O)[C@H](Cc1c[nH]cn1)NC(=O)[C@H](CO)NC(=O)[C@H](CC(C)C)NC(=O)[C@H](CCCNC(=N)N)N(C)C(=O)[C@@H]1CCCN1C(=O)[C@H](CCCNC(=N)N)NC(=O)[C@H](CCC(N)=O)NC(=O)COCCOCCNC(=O)COCCOCCNC(=O)CC[C@H](NC(=O)CCC)C(=O)O)C(=O)N1CCC[C@H]1C(=O)N[C@@H](Cc1ccc(Cl)cc1)C(=O)O [SEQ ID NO: 491]
- induction of histamine release from rat mast cells [5]: less mast cell degranulation activity
